Experimental data: PubChem BioAssay (NCI)
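Five concentrations, 48 hours, 96-well plates. Abbreviation: GI50, concentration required for 50% inhibition of growth. TGI: total growth inhibition.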

Legend:
Assay in all cases: inhibition of tumour cell growth, NCI panel, 48 h
HCT-15 colon = tested on: HCT-15 colon
HS 578T breast = tested on: HS 578T breast
KM12 colon = tested on: KM12 colon
OVCAR-5 ovarian = tested on: OVCAR-5 ovarian
SF-539 CNS = tested on: SF-539 CNS
SK-MEL-2 melanoma = tested on: SK-MEL-2 melanoma
TK-10 renal = tested on: TK-10 renal
UACC-257 melanoma = tested on: UACC-257 melanoma

SMILES	GI50 (HCT-15 colon) [µM]	TGI (HCT-15 colon) [µM]	GI50 (HS 578T breast) [µM]	TGI (HS 578T breast) [µM]	GI50 (KM12 colon) [µM]	TGI (KM12 colon) [µM]	GI50 (OVCAR-5 ovarian) [µM]	TGI (OVCAR-5 ovarian) [µM]	GI50 (SF-539 CNS) [µM]	TGI (SF-539 CNS) [µM]	GI50 (SK-MEL-2 melanoma) [µM]	TGI (SK-MEL-2 melanoma) [µM]	GI50 (TK-10 renal) [µM]	TGI (TK-10 renal) [µM]	GI50 (UACC-257 melanoma) [µM]	TGI (UACC-257 melanoma) [µM]
O=c1[nH]c2nc(NC3CCOCC3)ncc2cc1Oc1ccc(F)cc1F	> 25	> 25	> 25	> 25	> 25	> 25	> 25	> 25	> 25	> 25	> 25	> 25	> 25	> 25	> 25	> 25
S=c1nc(N/N=C/c2ccco2)c2cn[nH]c2[nH]1	50	> 100	42.5	> 100	24.7	> 100	> 100	> 100	43.3	> 100	> 100	> 100	> 100	> 100	> 100	> 100
COc1cc(NC(=O)CCSc2nc3ccc(C)cc3c(=O)n2Cc2ccccc2)cc(OC)c1OC	> 100	> 100	2.18	6.74	> 100	> 100	> 100	> 100	2.5	7.26	4.4	27.5	7.43	28.4	4.96	> 100
C#Cc1nc2ccccc2c(=O)[nH]1	0.224	0.644	1.69	7.12	1.39	2.94	1.04	2.59	0.345	1.42	2.15	6.19	0.546	11.2	0.505	3.15
Cc1nc(Nc2ccccn2)sc1C(=O)/C=C/c1ccc(Cl)cc1	0.355	> 100	0.398	> 100	0.377	15.9	0.587	> 79.4	0.252	0.812	1.36	> 100	1.09	24.4	22.8	> 100
Cn1cc(-c2ccc3nnc(Sc4ccc5ncccc5c4)n3n2)cn1	> 100	> 100	10.4	> 72.1	> 100	> 100	61.9	> 100	> 93.4	> 100	48.4	> 100	40.7	> 100	> 100	> 100
C=C1CCC2(C#N)[C@H]3[C@H](CC[C@@H]2C)[C@@H](C)C[C@@H](CC(C)(C)NC(=O)CN2CCC2=O)[C@H]13 (some centres not stated)	3.68	26.8	4.79	30.7	3.36	15	10.7	22.5	5.98	19.4	15.8	35.6	16.2	43.3	5.4	26.7
